Test results reported in patent US20200323843A1 (IRR, Inc., priority 2010, published 2020).
Entries after “also recorded” stand apart in the source; their conditions may differ. Read-outs that look alike come from different tables or passages of the source.

Legend:
influenza [1] = details: 10 days; levocetirizine 5 mg po and/or montelukast 10 mg po
Source text: A cohort of 20 patients between the ages of 15-30 years of age (and no other co-morbid disease processes), presenting with classic symptoms of influenza: headache, fever, dry cough and extreme fatigue, are identified and divided into four treatment groups. The first group (CONTROL) receives two placebo tablet(s) each administered together at the same time each day for a period of 10 days.
Laboratory data shall consist of a complete blood count, comprehensive metabolic panel, C-reactive protein, T and B cell lymphocyte panel, chest x-ray, and viral and aerobic cultures of the airway. Vital signs will be logged at the initial visit and the patient's fever profile tracked over the interim. Onset, duration and intensity of symptoms (headache, fever, cough, fatigue) will be logged in addition to the time to resolution of symptoms (time zero—first dose of medication(s)). Second endpoint data will include the time it takes to return to full activity, work/school.

[2] = test system: histamine induced wheal and flare; details: cited from earlier work
human rhinovirus = details: airway epithelial cells; cited from earlier work
[3] = test system: eosinophil migration, IL-4, IL-6, IL-8; details: cited from earlier work
[4] = cited from earlier work
[5] = cited from earlier work; remark: listed apart in the source
[6] = cited from earlier work; remark: listed apart in the source
influenza [7] = details: patients with influenza; cited from earlier work

Structure (SMILES): O=C(O)COCCN1CCN([C@H](c2ccccc2)c2ccc(Cl)cc2)CC1 [Levocetirizine, levocetirizine]
- influenza symptoms (influenza [1]): reduced fever profile and overall feeling of fatigue, without significant foreshortening of the disease process
- potency among the five modern generation antihistamines ([2]; histamine induced wheal and flare data): most potent
- effectiveness compared with fexofenadine ([2]; levocetirizine 5 mg per day vs fexofenadine 180 mg per day): more effective
- rhinovirus-induced ICAM-1 and cytokine expression and viral replication (human rhinovirus): inhibits
- eosinophil migration [3]: decrease
- inflammatory mediators, IL-4, IL-6, and IL-8 [3]: decrease
- Steady-state level ([4]; in vivo): 40 h
- time to steady state level ([4]; in vivo): 40 h
- principal side effect ([5]; at higher doses): Sedation
- dose that can be safely administered ([5]; humans): up to 30 mg/day

Structure (SMILES): CC(C)(O)c1ccccc1CC[C@@H](SCC1(CC(=O)O)CC1)c1cccc(/C=C/c2ccc3ccc(Cl)cc3n2)c1 [Montelukast, montelukast]
- plasma concentration area under the curve profile, IV vs oral tablet ([4]; IV 7 mg vs approved 10 mg oral tablet): comparable
- drug interactions with warfarin, theophylline, digoxin, terfenadine, oral contraceptives, or prednisone ([4]; in vivo, po): no drug interactions
- absorption ([4]; in vivo): rapidly absorbed
- linear pharmacokinetics, up to dose ([4]; in vivo): ≤ 50 mg
- time to peak plasma concentration ([4]; in vivo): 3 to 4 h
- oral bioavailability and Cmax, effect of a standard meal ([4]; standard meal): not affected
- dose administered without clinically important adverse experiences ([6]; adult patients, 22 weeks): up to 200 mg/day
- dose administered without clinically important adverse experiences ([6]; short-term studies, approximately one week): up to 900 mg/day

Structure (SMILES): CCOC(=O)C1=C[C@@H](OC(CC)CC)[C@H](NC(C)=O)[C@@H](N)C1 [oseltamivir]
- influenza related lower respiratory tract infections/complications (influenza [7]): has not been shown to decrease; also recorded: did not appear to reduce
